Laboratory results: patent US9493455B2, “Azaindole derivatives as inhibitors of protein kinases” (ORIBASE PHARMA, priority 2012, dated 2016)

Columns and labels:
BxPC-3 = test: In vitro cell proliferation assay (MTT); assay type: cell-based; details: Homo sapiens, BXPC-3, 72 h
How it was run: (§1)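 Growth is assessed with the tetrazolium dye MTT following a 72 hr incubation with compound spanning 10 nM up to 3 μM, each dose tested twice on 5×10^3 plated cells per well.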

Caki-2 = test: In vitro cell proliferation assay (MTT); assay type: cell-based; details: Homo sapiens, CAKI-2, 72 h
How it was run: as §1

BRAF = biological target: T1, BRAF (Homo sapiens, UniProt P15056); test: In vitro kinase assay (Z′-LYTE); assay type: biochemical; details: compound 100 nM; ATP 100 μM; read-out: % of inhibition of the kinase compared to the control
T1 construct: purchased Invitrogen
How it was run: (§2)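 Z′-LYTE FRET peptide-cleavage assay, emission ratio after 400 nm excitation; compound tested at 100 nM in 1% DMSO final. Kinase buffer 50 mM HEPES pH 7.5, 0.01% BRIJ-35, 10 mM MgCl2, 1 mM EGTA, ATP at previously determined apparent Km; read as percent inhibition.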

EGFR (ErbB1) = biological target: T2, EGFR (ErbB1) (Homo sapiens, UniProt P00533); test: In vitro kinase assay (Z′-LYTE); assay type: biochemical; details: read-out: % of inhibition of the kinase compared to the control
T2 construct: purchased Invitrogen
How it was run: as §2

EGFR (ErbB1) T790M L858R = biological target: T3, EGFR (ErbB1) T790M L858R (Homo sapiens, UniProt P00533, L858R/T790M); test: In vitro kinase assay (Z′-LYTE); assay type: biochemical; details: read-out: % of inhibition of the kinase compared to the control
T3 construct: purchased Invitrogen
How it was run: as §2

FGFR2 = biological target: T4, FGFR2 (Homo sapiens, UniProt P21802); test: In vitro kinase assay (Z′-LYTE); assay type: biochemical; details: read-out: % of inhibition of the kinase compared to the control
T4 construct: purchased Invitrogen
How it was run: as §2

KDR (VEGFR2) = biological target: T5, KDR (VEGFR2) (Homo sapiens, UniProt P35968); test: In vitro kinase assay (Z′-LYTE); assay type: biochemical; details: read-out: % of inhibition of the kinase compared to the control
T5 construct: purchased Invitrogen
How it was run: as §2

PDGFRA (PDGFR alpha) = biological target: T6, PDGFRA (PDGFR alpha) (Homo sapiens, UniProt P16234); test: In vitro kinase assay (Z′-LYTE); assay type: biochemical; details: read-out: % of inhibition of the kinase compared to the control
T6 construct: purchased Invitrogen
How it was run: as §2

SRC = biological target: T7, SRC (Homo sapiens, UniProt P12931); test: In vitro kinase assay (Z′-LYTE); assay type: biochemical; details: read-out: % of inhibition of the kinase compared to the control
T7 construct: purchased Invitrogen
How it was run: as §2

A549 = test: In vitro cell proliferation assay (MTT); assay type: cell-based; details: Homo sapiens, A549, 72 h
How it was run: as §1

H1975 = test: In vitro cell proliferation assay (MTT); assay type: cell-based; details: Homo sapiens, NCI-H1975, 72 h
How it was run: as §1

HRMEC = test: In vitro cell proliferation assay (MTT); assay type: cell-based; details: 72 h
How it was run: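 Cells were seeded at 5×10^3 per well and exposed in duplicate to escalating compound concentrations from 10 nM to 3 μM for 72 hr. Proliferation was then measured by MTT reduction.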

HT29 = test: In vitro cell proliferation assay (MTT); assay type: cell-based; details: Homo sapiens, HT-29, 72 h
How it was run: as §1

HUVEC = test: In vitro cell proliferation assay (MTT); assay type: cell-based; details: Homo sapiens, 72 h
Procedure: Cancer cell lines (5×10^3 cells per well) or HUVEC (1×10^4 cells per well) or HRMEC (1×10^4 cells per well) were distributed in 96-well plates and incubating in duplicate with escalating concentrations (10 nM to 3 μM) of compounds for 72 hr. Cell proliferation was measured using MTT (3 [4,5-dimethylthiazol-2-yl]-2,5-diphenyltetrazolium bromide).

HeLa = test: In vitro cell proliferation assay (MTT); assay type: cell-based; details: Homo sapiens, 72 h
How it was run: as §1

HepG2 = test: In vitro cell proliferation assay (MTT); assay type: cell-based; details: Homo sapiens, HepG2, 72 h
How it was run: as §1

HuCCT1 = test: In vitro cell proliferation assay (MTT); assay type: cell-based; details: Homo sapiens, HuCCT-1, 72 h
How it was run: as §1

HuH6 Clone 5 = test: In vitro cell proliferation assay (MTT); assay type: cell-based; details: HUH-6-clone5, 72 h
How it was run: as §1

HuH7 = test: In vitro cell proliferation assay (MTT); assay type: cell-based; details: Homo sapiens, Huh-7, 72 h
How it was run: as §1

MDA-MB-231 = test: In vitro cell proliferation assay (MTT); assay type: cell-based; details: Homo sapiens, MDA-MB-231, 72 h
How it was run: as §1

T7 sequence (P12931 whole entry): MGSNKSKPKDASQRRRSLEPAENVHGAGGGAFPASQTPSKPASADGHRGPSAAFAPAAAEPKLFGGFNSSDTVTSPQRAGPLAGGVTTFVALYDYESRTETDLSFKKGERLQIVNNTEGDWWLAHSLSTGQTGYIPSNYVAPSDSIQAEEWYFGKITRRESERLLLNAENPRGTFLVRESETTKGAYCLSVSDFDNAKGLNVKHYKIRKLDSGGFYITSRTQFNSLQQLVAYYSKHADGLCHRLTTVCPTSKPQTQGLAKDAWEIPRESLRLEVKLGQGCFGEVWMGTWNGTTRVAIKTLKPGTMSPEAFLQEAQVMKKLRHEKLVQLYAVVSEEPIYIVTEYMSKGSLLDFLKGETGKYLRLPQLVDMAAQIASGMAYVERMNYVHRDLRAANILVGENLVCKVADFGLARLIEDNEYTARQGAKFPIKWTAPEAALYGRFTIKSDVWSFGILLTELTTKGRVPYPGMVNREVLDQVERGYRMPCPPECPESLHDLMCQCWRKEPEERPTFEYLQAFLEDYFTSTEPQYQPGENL
T1 sequence (P15056 whole entry): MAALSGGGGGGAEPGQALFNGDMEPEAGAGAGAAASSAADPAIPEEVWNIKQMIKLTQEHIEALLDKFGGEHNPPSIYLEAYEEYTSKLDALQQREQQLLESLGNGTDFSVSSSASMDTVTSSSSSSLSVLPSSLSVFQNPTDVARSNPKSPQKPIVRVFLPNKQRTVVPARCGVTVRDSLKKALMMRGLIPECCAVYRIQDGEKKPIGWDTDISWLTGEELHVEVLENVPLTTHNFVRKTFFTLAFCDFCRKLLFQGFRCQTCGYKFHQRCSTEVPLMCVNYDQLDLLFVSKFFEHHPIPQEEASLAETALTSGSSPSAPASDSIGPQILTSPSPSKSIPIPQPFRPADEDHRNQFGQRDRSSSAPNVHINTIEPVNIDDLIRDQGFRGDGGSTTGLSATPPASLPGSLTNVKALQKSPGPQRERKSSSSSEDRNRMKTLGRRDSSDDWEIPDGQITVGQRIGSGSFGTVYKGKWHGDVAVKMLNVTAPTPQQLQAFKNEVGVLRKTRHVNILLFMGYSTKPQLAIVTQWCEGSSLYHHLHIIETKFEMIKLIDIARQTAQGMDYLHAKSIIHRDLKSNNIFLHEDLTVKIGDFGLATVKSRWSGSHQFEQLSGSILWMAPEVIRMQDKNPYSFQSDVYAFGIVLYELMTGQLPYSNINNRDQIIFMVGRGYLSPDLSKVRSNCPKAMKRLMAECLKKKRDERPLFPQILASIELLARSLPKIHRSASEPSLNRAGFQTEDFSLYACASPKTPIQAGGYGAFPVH
T6 sequence (P16234 24-1089): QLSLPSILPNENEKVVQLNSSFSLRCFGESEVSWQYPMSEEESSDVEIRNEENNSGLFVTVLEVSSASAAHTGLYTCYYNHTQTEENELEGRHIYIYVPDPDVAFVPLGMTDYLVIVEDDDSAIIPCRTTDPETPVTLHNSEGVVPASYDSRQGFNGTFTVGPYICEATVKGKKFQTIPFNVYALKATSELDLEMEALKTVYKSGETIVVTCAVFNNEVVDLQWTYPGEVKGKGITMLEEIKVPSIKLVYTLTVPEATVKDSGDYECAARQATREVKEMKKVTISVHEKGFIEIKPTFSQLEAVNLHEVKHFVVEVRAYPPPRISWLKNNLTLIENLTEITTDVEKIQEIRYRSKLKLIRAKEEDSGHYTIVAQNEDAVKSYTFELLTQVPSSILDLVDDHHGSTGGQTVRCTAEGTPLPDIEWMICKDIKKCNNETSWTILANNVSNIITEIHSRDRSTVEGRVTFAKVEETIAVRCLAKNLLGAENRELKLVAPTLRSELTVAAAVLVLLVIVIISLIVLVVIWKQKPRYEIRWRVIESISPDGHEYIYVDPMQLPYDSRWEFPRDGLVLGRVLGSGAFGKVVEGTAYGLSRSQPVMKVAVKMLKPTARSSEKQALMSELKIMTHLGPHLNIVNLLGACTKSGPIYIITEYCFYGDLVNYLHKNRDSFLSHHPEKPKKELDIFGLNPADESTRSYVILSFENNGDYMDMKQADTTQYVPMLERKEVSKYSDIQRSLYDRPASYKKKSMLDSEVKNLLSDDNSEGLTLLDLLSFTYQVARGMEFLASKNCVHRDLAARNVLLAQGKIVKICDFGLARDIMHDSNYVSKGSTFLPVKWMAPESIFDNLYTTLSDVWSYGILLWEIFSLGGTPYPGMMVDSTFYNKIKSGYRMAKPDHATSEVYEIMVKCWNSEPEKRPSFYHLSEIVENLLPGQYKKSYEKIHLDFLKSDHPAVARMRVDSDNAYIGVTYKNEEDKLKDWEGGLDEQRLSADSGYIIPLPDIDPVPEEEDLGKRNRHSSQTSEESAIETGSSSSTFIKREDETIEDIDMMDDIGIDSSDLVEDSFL
T5 sequence (P35968 20-1356): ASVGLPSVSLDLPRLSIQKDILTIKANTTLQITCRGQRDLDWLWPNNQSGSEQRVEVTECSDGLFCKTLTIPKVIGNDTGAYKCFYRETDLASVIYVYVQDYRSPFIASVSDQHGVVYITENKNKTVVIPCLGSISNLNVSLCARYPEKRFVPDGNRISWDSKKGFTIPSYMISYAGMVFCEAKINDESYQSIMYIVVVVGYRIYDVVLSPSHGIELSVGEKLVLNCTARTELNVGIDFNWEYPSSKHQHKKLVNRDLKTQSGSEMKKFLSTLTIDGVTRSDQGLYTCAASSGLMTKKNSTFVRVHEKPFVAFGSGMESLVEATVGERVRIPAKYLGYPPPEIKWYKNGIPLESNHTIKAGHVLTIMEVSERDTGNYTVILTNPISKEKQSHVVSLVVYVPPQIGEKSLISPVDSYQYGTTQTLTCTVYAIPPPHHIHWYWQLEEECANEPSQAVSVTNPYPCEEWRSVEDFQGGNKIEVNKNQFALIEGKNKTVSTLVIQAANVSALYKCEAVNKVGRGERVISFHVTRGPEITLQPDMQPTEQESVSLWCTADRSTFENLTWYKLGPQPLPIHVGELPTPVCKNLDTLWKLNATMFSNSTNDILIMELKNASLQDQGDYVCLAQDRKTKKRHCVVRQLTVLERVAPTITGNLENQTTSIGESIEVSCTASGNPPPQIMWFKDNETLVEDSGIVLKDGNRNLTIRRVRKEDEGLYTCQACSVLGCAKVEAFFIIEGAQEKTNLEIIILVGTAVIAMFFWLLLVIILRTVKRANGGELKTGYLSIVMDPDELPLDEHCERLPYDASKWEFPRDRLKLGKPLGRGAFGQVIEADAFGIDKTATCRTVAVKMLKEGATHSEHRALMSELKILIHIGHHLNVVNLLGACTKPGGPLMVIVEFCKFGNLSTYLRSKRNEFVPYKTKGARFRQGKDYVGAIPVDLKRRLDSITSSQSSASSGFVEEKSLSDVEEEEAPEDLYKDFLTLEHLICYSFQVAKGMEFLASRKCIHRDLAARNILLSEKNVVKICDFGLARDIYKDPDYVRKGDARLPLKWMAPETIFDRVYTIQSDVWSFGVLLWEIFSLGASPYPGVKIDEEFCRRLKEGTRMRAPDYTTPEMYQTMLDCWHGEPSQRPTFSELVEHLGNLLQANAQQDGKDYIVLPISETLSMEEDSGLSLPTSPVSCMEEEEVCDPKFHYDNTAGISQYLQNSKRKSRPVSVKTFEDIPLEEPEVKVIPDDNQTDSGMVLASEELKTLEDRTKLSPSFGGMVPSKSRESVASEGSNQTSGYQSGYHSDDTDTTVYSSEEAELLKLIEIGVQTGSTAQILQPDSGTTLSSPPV
T4 sequence (P21802 22-821): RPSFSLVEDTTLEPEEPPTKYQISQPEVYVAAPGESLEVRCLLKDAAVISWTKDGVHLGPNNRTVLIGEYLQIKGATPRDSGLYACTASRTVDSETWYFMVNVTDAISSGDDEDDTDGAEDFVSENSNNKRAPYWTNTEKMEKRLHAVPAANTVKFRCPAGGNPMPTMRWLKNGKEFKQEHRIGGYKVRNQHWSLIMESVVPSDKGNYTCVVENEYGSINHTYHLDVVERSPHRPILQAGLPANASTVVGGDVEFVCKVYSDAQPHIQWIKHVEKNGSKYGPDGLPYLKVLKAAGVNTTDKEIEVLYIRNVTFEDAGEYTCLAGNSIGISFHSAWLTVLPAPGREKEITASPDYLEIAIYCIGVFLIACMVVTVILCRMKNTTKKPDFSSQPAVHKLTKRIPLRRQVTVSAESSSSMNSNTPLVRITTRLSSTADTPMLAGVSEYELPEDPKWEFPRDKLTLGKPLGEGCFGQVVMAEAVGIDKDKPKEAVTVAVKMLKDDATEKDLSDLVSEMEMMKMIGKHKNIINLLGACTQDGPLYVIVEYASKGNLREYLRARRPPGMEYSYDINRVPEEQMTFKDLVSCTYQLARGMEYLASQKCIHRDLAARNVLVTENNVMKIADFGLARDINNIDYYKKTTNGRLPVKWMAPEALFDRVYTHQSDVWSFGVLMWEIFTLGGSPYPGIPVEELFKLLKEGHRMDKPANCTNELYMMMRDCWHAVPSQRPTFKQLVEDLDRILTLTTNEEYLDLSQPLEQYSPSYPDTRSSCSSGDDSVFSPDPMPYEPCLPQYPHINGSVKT

SMILES | EC50 (BxPC-3) [nM] | EC50 (Caki-2) [nM] | inhibition at 0.1 µM (BRAF) [%] | inhibition at 0.1 µM (EGFR (ErbB1)) [%] | inhibition at 0.1 µM (EGFR (ErbB1) T790M L858R) [%] | inhibition at 0.1 µM (FGFR2) [%] | inhibition at 0.1 µM (KDR (VEGFR2)) [%] | inhibition at 0.1 µM (PDGFRA (PDGFR alpha)) [%] | inhibition at 0.1 µM (SRC) [%] | EC50 (A549) [nM] | EC50 (H1975) [nM] | EC50 (HRMEC) [nM] | EC50 (HT29) [nM] | EC50 (HUVEC) [nM] | EC50 (HeLa) [nM] | EC50 (HepG2) [nM] | EC50 (HuCCT1) [nM] | EC50 (HuH6 Clone 5) [nM] | EC50 (HuH7) [nM] | EC50 (MDA-MB-231) [nM]
CCN(CC)CCNC(=O)c1c(C)[nH]c(/C=C2\C(=O)Nc3ccc(F)cc32)c1C [Sunitinib, reference compound] | ≥ 1000 | ≥ 1000 |  |  |  |  |  |  |  |  |  |  |  |  |  |  |  |  |  | 
COC(=O)c1cc2cc(NC(=O)c3cc(NC(=O)c4ccc(CN5CCN(C)CC5)c(C(F)(F)F)c4)ccc3C)cnc2[nH]1 [OR0744] |  |  | ≥ 50 | ≥ 50 | ≥ 50 | ≥ 50 | ≥ 50 | ≥ 50 | ≥ 50 | 100 to 1000 | ≥ 1000 | 100 to 1000 | 100 to 1000 | 100 to 1000 | 100 to 1000 | 100 to 1000 | ≥ 1000 | ≥ 1000 | 100 to 1000 | 100 to 1000
